Earlier results as cited in patent US20160174603A1, “Electronic Vapor Liquid Composition and Method of Use” (priority 2014, published 2016).

What was measured:
TRPC6 receptor = biological target: T1, TRPC6 receptor (Homo sapiens, UniProt Q9Y210)
T1 sequence (Q9Y210 1-931): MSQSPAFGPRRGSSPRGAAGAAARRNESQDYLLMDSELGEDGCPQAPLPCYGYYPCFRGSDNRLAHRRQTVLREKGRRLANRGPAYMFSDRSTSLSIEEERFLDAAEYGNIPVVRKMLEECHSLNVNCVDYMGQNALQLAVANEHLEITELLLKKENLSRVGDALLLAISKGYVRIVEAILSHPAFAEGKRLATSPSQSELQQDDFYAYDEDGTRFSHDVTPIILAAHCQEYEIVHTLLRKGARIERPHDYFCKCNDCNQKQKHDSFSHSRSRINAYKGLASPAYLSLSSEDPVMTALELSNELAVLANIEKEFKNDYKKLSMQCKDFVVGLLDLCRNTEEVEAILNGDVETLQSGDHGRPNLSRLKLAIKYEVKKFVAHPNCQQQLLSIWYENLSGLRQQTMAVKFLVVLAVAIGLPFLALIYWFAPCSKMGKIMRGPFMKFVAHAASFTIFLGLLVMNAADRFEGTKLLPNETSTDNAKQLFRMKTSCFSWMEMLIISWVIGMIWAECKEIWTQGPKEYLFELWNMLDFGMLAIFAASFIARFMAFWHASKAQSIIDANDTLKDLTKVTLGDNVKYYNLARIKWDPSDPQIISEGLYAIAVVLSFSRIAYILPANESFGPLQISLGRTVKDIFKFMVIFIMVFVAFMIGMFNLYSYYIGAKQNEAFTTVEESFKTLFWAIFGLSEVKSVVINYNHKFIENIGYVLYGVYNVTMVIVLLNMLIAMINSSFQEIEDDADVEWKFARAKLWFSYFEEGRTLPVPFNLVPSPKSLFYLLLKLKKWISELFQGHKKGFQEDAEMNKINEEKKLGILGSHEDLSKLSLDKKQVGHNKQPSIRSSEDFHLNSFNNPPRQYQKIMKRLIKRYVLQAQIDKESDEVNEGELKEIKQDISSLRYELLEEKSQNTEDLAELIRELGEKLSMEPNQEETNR

MAO-B = biological target: T2, MAO-B (Homo sapiens, UniProt P27338); details: read-out: Ki, reversible MAO-B inhibitor
T2 sequence (P27338 1-520): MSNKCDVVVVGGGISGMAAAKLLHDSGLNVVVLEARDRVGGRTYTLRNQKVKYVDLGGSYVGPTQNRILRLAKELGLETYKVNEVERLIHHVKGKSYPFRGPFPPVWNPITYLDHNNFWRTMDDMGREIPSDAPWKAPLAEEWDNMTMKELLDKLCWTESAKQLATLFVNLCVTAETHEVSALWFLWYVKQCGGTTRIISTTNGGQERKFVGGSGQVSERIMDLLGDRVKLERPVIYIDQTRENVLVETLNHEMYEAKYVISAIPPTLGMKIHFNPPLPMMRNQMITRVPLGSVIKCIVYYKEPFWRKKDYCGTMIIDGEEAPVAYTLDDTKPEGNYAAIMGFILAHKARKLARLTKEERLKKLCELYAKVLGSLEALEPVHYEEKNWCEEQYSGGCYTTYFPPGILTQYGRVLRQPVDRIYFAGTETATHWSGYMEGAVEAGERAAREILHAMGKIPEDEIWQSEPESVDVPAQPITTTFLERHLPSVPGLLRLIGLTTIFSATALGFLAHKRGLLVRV

[1] = tested on: dopamine levels in the nucleus accumbens; details: rat, in vivo
[2] = biological target: norepinephrine transporter (NAT) (Homo sapiens, UniProt P23975); details: both enantiomeric forms
adenosine receptor = details: in vitro
acetylcholinesterase = acetylcholinesterase (Homo sapiens, UniProt P22303); details: in vitro
Chain of acetylcholinesterase (P22303 32-614, species assumed): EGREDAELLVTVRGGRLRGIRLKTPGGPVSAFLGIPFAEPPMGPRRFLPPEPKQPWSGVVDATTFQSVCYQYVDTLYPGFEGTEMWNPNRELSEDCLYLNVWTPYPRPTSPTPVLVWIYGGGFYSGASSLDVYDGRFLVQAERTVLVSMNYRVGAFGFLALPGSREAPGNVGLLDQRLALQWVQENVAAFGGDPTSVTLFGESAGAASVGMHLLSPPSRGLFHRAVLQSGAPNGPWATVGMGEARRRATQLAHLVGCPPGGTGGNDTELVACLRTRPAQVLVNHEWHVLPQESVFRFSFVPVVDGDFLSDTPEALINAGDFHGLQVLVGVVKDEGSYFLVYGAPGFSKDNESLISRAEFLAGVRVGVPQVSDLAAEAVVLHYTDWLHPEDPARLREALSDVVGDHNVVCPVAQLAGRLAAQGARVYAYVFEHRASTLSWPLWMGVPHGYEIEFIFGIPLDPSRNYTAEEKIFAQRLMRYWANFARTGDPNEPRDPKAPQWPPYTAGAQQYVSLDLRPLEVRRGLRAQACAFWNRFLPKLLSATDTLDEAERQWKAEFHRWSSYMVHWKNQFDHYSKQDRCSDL

Chain of norepinephrine transporter (NAT) (P23975 whole entry): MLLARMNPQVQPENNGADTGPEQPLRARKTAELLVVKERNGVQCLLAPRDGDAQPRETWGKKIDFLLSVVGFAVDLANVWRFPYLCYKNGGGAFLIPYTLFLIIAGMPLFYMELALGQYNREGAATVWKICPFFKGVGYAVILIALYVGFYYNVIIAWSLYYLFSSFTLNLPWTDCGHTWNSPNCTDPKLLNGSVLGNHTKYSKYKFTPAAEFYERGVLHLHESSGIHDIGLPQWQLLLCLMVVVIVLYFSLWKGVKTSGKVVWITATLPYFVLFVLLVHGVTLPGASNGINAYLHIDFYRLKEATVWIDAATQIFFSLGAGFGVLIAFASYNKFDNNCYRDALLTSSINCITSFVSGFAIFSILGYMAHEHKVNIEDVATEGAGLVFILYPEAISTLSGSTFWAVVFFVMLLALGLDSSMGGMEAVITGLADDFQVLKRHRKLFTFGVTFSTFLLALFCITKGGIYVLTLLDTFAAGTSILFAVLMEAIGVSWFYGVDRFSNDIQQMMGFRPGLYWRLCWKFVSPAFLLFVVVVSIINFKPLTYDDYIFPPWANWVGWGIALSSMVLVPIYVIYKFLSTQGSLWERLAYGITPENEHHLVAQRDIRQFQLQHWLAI

With `CC(C)=CCC[C@]1(C)[C@@H](CC=C(C)C)C[C@@]2(CC=C(C)C)C(=O)[C@]1(C(=O)C(C)C)C(=O)C(CC=C(C)C)=C2O` [Hyperforin] as the compound, how does the TRPC6 receptor activity (TRPC6 receptor) read?
Its TRPC6 receptor activity is “TRPC6 receptor agonists”.

With `O=C(O)[C@H]1O[C@@H](Oc2cc3oc(-c4ccccc4)cc(=O)c3c(O)c2O)[C@H](O)[C@@H](O)[C@@H]1O` [Baicalin] as the compound, how does the “effects in a rat model of thermal hyperalgesia” value (thermal hyperalgesia) read?
Its value is “anti-inflammatory and analgesic effects”.

Which results are given for `CC[C@H]1CN2CC[C@]3(C(=O)Nc4ccccc43)[C@@H]2C[C@@H]1/C(=C\OC)C(=O)OC` [rhynchophylline]?
calcium channel activity (calcium channel): calcium channel blocker; effect on NMDA-induced current (NMDA-induced current): reduces NMDA-induced current

For `COc1cc(/C=C/c2ccccc2)oc(=O)c1` [Desmethoxyyangonin], which Ki (MAO-B) is on record?
Its Ki is 280 nM.

What about the “dopamine levels in the nucleus accumbens” value [1] of the same compound?
The value was “able to increase dopamine levels”.

With `COC1=CC(=O)O[C@@H](/C=C/c2ccccc2)C1` [Kavain] as the compound, how does the “reuptake of norepinephrine at the transporter (NAT)” value [2] read?
The value was “inhibits the reuptake of norepinephrine”.

For `CCC(C)C(=O)[C@]12C(=O)[C@](CC=C(C)C)(C[C@H](CC=C(C)C)[C@@]1(C)CCC=C(C)C)C(=O)C(CC=C(C)C)=C2O` (stereo partly shown) [adhyperforin], which TRPC6 receptor activity (TRPC6 receptor) is on record?
Its TRPC6 receptor activity is “TRPC6 receptor agonists”.

With `C=C1C(=O)O[C@@H]2[C@H]3C(CO)=CC(=O)C3=C(C)C[C@@H](O)[C@@H]12` [lactucin] as the compound, how does the adenosine receptor activity (adenosine receptor) read?
The adenosine receptor activity was “adenosine receptor agonist”.

Which acetylcholinesterase activity (acetylcholinesterase) does the source give for lactucopicrin here?
Its acetylcholinesterase activity is “acetylcholinesterase inhibitor”.
